Assay results from patent publication US7998991B2, “Neurotherapeutic treatment for sexual dysfunction” (Revaax Pharmaceuticals, LLC, priority 2001, dated 2011).

Tests used:
[1] = system: cotton-top tamarin (Saguinus oedipus); experiment: Novel object test for anxiolytic activity in cotton-top tamarins; format: in vivo; conditions: oral 1 mg/kg, three doses a day for two days
Experimental: Eight male/female pairs of tamarins with long standing pair bonds were tested following oral treatments of CLAV and vehicle (VEH) control. There were no offspring since males were vasectomized. Both members of a pair received the same treatments at the same times. Each animal served as its own control being tested both with CLAV or VEH one week apart. The treatment schedule was counter-balanced. CLAV was dissolved in water and dispensed onto a small cookie in a volume of 100 μl. A single CLAV cookie was given to each member of a pair at an approximate dose of 1 mg/kg body weight. Animals were given three CLAV cookies each day for two consecutive days. The 1st cookie was given at 8:00 AM prior to the morning feeding, the 2nd at 11:00 AM prior to the noon feeding and the 3rd at 2:00 PM prior to the late afternoon snack. All animals were scored for anti-anxiety activity 60 min after the 3rd treatment on the second day.
Two observers blind to the treatment independently scored behavioral activity. To elicit anxious/stressful behavior a novel object was placed into the home cage. A different novel object was used for each test session and the object presentation was counter-balanced. Following the presentation of the novel object animals were scored for a duration of 15 min for: 1) latency to approach and latency to touch the object, 2) time spent in contact or proximity with the object, 3) face and head movement (frowns, head shakes and head cocks that reflect tension), 4) scratching (a validated measure of anxiety in macaques), 5) piloerection (autonomic stress response), and 6) visual scanning (nervous vigilance).

[2] = system: well known signaling receptors or transporters; experiment: Binding of CLAV to well known signaling receptors or transporters
nucleus accumbens = experiment: Microdialysis of extracellular neurotransmitter levels after IP CLAV; format: in vivo, Sprague Dawley rats
Experimental: To test this hypothesis, extracellular neurotransmitter levels in the area of the nucleus accumbens were assessed with microdialysis following CLAV treatment. The accumbens is part of the limbic forebrain best now for its association with the pathophysiology of schizophrenia and drug addiction but also thought to be involved in sensitization to early life trauma leading to the anxiety disorder PTSD or post traumatic stress disorder ([…] and Bremner 1999). Ten male, Sprague Dawley rats were anesthetized with sodium pentobarbital (50 mg/kg) and implanted with a unilateral microdialysis guide cannula aimed at the nucleus accumbens. Two days after recovery from surgery a microdialysis probe (2 mm) was lowered to the area and connected to an infusion pump through Tygon tubing. The dialysate was artificial CSF at pH 7.4 delivered at a flow rate of 2 μl/min. The first 120 min of dialysate will be discarded. Thereafter, samples were collected at 30 min intervals prior to and following IP CLAV treatment (10 μg/kg). Samples were collected into microfuge tubes containing 5 μl of 0.16 N perchloric acid to stabilize catecholamines. At the end of the study, animals were sacrificed and the brains prepared for histology to verify the site of the microdialysis probe.

[3] = Pharmacokinetic assessment of CLAV run by IVEDCO; conditions: from plasma 2.5 μg/ml and CSF/plasma ratio 0.25
Experimental: This treatment regimen of three doses each day for two consecutive days was chosen to acclimate the animals to the treatment procedure (day 1) and to achieve steady-state blood concentration before testing (day 2). A pharmacokinetic assessment of CLAV was run by IVEDCO (Irving Tex.) which estimated an oral dose of 1 mg/kg every three hrs would produce steady-state levels yielding an average plasma concentration of 2.5 μg/ml at the time of testing. Since the CSF/plasma ratio is 0.25 the estimated concentration in the brain would be around 0.3 μM. Given the rate of clearance of CLAV, treatments from day 1 should not have contributed to blood levels of drug on day 2.

[4] = system: cotton-top tamarin (Saguinus oedipus); experiment: Scoring of erections, mounts and female solicitations in cotton-top tamarins; format: in vivo; conditions: oral 1 mg/kg
monoamine transporters = experiment: Binding of CLAV to monoamine transporters
monoamine oxidase A = target: T1, monoamine oxidase A (Homo sapiens, UniProt P21397); experiment: Binding of CLAV to monoamine oxidase A
T1 sequence (P21397 1-527): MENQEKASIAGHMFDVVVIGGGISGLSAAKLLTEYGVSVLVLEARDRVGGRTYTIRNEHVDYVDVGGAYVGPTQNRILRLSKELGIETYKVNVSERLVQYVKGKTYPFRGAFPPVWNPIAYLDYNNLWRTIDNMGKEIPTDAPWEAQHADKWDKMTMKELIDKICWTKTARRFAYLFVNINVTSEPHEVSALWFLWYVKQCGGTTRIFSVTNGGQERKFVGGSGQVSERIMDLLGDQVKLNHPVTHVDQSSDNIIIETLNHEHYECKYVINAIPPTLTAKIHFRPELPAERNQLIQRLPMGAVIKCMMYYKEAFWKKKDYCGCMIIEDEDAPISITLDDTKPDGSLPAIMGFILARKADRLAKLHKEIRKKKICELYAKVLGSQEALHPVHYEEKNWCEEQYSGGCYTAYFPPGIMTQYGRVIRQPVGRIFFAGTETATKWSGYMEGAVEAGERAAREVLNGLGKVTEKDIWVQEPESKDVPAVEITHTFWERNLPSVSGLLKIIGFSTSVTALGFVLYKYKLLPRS

[5] = system: prefrontal cortex and nucleus accumbens; conditions: Cartmell et al., 2000b; Hertel et al. 1997; cited from earlier work

## O=C(O)[C@H]1/C(=C/CO)O[C@@H]2CC(=O)N21 [CLAV, clavulanic acid]
[1]
  latency to approach the novel object, CLAV vs VEH: no significant difference
  latency to touch the novel object, CLAV vs VEH: no significant difference
  time spent in proximity to the object, CLAV vs VEH: Neither was there any difference
[1]; scored 15 min, 60 min after 3rd treatment on day 2, p<0.05 vs VEH
  combined measures of anxious/nervous behaviors (3, 4, 5 & 6): 12.7+4.8
[2]
  binding to well known signaling receptors or transporters: does not appear to bind
Nucleus accumbens; IP 10 μg/kg, AC-1 to AC-5
  DOPAC levels: only rose in two cases
Nucleus accumbens; IP 10 μg/kg, lateral ventricle, bed nucleus of stria terminalis, head of the caudate, ventrolateral thalamus
  changes in dopamine and serotonin neurotransmission, probe outside the nucleus accumbens: little if any changes
Nucleus accumbens; animal AC-1, IP 10 μg/kg
  dopamine metabolite 3,4-dihydroxyphenylacetic acid (DOPAC) over time: robust increase
  dopamine metabolite homovanillic acid (HVA) over time: robust increase
  dopamine over time: modest decrease
  extracellular levels of serotonin over time: increase
  serotonin metabolite 5-hydroxyindoleacetic acid (HIAA) over time: robust increase
[3]
  estimated concentration in the brain: around 0.3 μM
[4]; eight females, three doses a day for two days
  females showing solicitation behaviors: Two of the eight
[4]; eight males, three doses a day for two days
  males showing at least one erection in 15 min: All eight
[4]; males, three doses a day for two days
  mean erections in 15 min: 2.25 erections in 15 min
[4]; males, p<0.02 vs VEH
  rate of erections: 9.0 erections per hour
[4]; three doses a day for two days
  mounting behavior, CLAV vs VEH: no significant difference
Monoamine transporters
  binding to monoamine transporters: Neither the monoamine transporters nor the degradative enzyme monoamine oxidase A show binding
Monoamine oxidase A
  binding to monoamine oxidase A: Neither the monoamine transporters nor the degradative enzyme monoamine oxidase A show binding

## Cc1nc2n(c(=O)c1CCN1CCC(c3noc4cc(F)ccc34)CC1)CCCC2 [risperidone]
[5]
  dopamine and serotonin neurotransmission in the prefrontal cortex and nucleus accumbens: increase
